Test results from patent US12508328B2, “Bio-activated reporters to visualize, in real time, specific gene therapy products” (Northwestern University, priority 2019, dated 2025).

Tests used:
[1] = Relaxivity (1.4 T) in MOPS and MOPS/CO3^2−; format: physicochemical; settings: for Δr1 relative to the cleaved control product 11: intramolecular series 10a-d
Protocol: While measurements of q indicate how well an agent can restrict water access to the GdIII center, the most important property for a bio-activated contrast agent is the change in relaxivity upon enzymatic cleavage (r1). To evaluate the signal change in the presence of CO32−, relaxivities of the intermolecular activated agents were measured in two different buffer conditions, the non-coordinating buffer MOPS and MOPS/CO32−.
T1 relaxation times were obtained for 5a-c (FIG. 13), and complexes 10a-d (FIG. 14), and 11 at 37° C. at 60 MHz (1.4 T) on a Bruker mq60 minispec spectrometer (Billerica, MA). Three 1 mM solutions of each complex were prepared in four different buffer conditions 1) 10 mm 3-(N-morpholino)propanesulfonic acid (MOPS), 100 mm NaCl, pH 7.4, 2) 10 mm MOPS, 24 mm NaHCO3, 100 mm NaCl, pH 7.4, 3) Dulbecco's Phosphate Buffer (DPBS) pH 7.3 Life Technologies, and 4) b-galactosidase enzyme assay buffer, 200 mm sodium phosphate, 100 mm bmercaptoethanol, 2 mm MgCl2, pH 7.3 (FIG. 15). Three sets of five serial dilutions (about 1 mm, 0.5 mm, 0.25 mm, 0.125 mm and 0.0625 mm) were prepared for each complex. T1 relaxation rates were measured using an inversion recovery pule sequence (t1_ir_mb) with a 10 ms first pulse separation, recycle delay and final pulse separation ≥5 T1. T1 relaxation rates were plotted as a function of GdIII concentrations as determined by ICP-MS, r1/r2 was obtained from linear fit of concentration vs. T1 as described in Equation (1).

[2] = Complex stability measured by relaxivity (T1); format: physicochemical; settings: for change in T1 over time (stability): 1 mM in enzyme buffer pH 7.3, over 140 hours
β-gal = β-gal (Escherichia coli, UniProt P00722); settings: for T1 signal in the presence of β-gal compared with cleaved agent 11: 24 h incubation
Chain of β-gal (P00722 2-1024): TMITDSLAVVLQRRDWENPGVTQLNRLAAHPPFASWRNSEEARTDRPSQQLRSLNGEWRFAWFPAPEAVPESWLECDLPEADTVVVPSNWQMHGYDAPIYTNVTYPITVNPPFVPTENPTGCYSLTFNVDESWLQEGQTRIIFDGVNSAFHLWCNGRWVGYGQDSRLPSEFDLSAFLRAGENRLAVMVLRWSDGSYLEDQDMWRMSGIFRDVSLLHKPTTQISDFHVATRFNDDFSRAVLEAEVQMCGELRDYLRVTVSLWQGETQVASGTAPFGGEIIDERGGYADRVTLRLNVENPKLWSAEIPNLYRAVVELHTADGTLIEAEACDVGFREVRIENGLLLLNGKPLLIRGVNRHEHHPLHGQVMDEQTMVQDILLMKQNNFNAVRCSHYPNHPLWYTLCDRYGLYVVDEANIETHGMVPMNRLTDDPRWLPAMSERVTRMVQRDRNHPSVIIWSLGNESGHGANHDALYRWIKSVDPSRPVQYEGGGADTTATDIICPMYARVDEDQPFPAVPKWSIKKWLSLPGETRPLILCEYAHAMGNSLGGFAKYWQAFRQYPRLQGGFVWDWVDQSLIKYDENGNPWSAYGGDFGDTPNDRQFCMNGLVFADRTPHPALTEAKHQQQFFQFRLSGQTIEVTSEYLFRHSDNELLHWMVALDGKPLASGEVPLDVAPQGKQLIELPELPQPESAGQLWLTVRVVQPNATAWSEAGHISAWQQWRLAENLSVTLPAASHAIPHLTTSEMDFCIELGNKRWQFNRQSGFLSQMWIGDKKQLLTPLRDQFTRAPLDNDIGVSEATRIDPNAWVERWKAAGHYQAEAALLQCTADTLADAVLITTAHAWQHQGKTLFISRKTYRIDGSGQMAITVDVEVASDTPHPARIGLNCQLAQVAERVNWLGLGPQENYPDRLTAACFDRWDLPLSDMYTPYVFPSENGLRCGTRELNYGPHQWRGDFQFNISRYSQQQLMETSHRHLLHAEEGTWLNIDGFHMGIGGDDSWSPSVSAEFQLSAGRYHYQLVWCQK
Protocol: MR images were acquired on a Bruker Pharmscan 7 T imaging spectrometer fitted with shielded gradient coils at 25° C. Image analysis was carried out using Paravision 5.0 p13 software (Bruker, Billerica, MA, USA) with monoexponential curve-fitting of image intensities of selected regions of interest (ROIs) for each axial slice. […] Exact Gd(III) concentration was verified by ICP-MS. Either 10 μL of enzyme stock solution (50% enzyme assay buffer, 50% glycerol, at 521 U/mL β-gal) or 10 μL of a 50% enzyme assay buffer/50% glycerol solution (used as a control) were added to a 190 μL aliquot of each complex. After this addition, the final concentration of each complex was 475 μM, with 26.1 U/mL of β-gal. The solutions were incubated at 37° C. for 24 hours, then aliquoted to 5, ¾″ flame-sealed Pasteur pipets. The bottom sections of the flame-sealed pipets were then scored with a glass scribe, broken into small capillaries, and imaged using a RF RES 300 1H 089/023 quadrature transmit receive 23 mm volume coil (Bruker BioSpin, Billerica, MA, USA). T1 relaxation times were measured using a rapid-acquisition rapid-echo RARE-VTR T1-map pulse sequence with the following imaging parameters: TE (11.0 ms), TR (500.0 ms), field of view (FOV)=25×25 mm2, matrix size (MTX)=256×256, number of axial slices=5, slice thickness (SI)=1.0 mm, and averages (NEX)=3, and total scan time was 2:36:57. T2 values were measured using a multislice multiecho (MSME) T2-map pulse sequence, with static TR (5000 ms) and 32 fitted echoes in 11 ms intervals (11, 22, . . . , 352 ms). Imaging parameters were as follows: FOV=25×25 mm2, MTX=256×256, number of axial slices=4, SI=1.0 mm, NEX=3, and a total scan time=48 min. T1 images and times can be found in FIG. 14 and T2 maps and times can be found in FIG. 18.

[3] = cited from earlier work; for link to nephrogenic systemic fibrosis (NSF): clinical use
[4] = cited from earlier work
β-galactosidase = target: T1, β-galactosidase (Escherichia coli, UniProt P00722); format: biochemical; settings: 25° C., TES buffer, 1 mM MgCl2, 150 mM NaCl
T1 construct: purchased Sigma Aldrich
T1 sequence (P00722 2-1024): as above
Protocol: Catalytic efficiencies for five substrates, 5a-c, ONPG, and PNPG were evaluated by UV-vis spectroscopy (Table 3). ONPG and PNPG are literature standards that were used to ensure the assay was performed adequately and to serve as benchmarks of activation kinetics in the absence of the GdIII chelate. […] Catalytic efficiency is directly related to the imaging window wherein activation to the r1, on state is competing with clearance.
Enzyme activation kinetics were determined by the method of initial rates for compounds 5a-c via the appearance of the nitrophenol byproduct of activation. The characteristic absorption was monitored at 420 nm. Concentrations of substrate used were 0, 0.05, 0.1, 0.12, 0.15, 0.3, 0.4, 0.5, 0.75, 1, and 2 mM. Each concentration was measured in triplicate and exact concentrations were measured by ICP-MS (see Table 2).

[5] = intravenous, two-compartment open-model

## CCOC(=O)CCCNc1cc(COC(=O)NCCN2CCN(CC(=O)[O-])CCN(CC(=O)[O-])CCN(CC(=O)[O-])CC2)ccc1O[C@@H]1O[C@H](CO)[C@H](O)[C@H](O)[C@H]1O.[Gd+3] [10b, Gadolinium(III)-1-(4-(2-(1-(4,7,10-triscarboxymethyl-(1,4,7,10tetraazacyclododecyl)))ethylcarbamoyloxymethyl)-2-((4-ethoxy-4-oxobutyl)amino)phenyl)-β-D-galactopyranose]
[1]; 10a-d, MOPS
  Δr1 in MOPS: largest
[1]; 37° C.
  Δr1 relative to the cleaved control product 11: positive
[2]
  change in T1 over time (stability): No significant change in T1
β-gal; 7 T T1 solution phantoms
  change in MR contrast +/−β-gal: greatest change in MR contrast
β-gal; 7 T solution phantoms
  T1 signal in the presence of β-gal compared with cleaved agent 11: does not appear to fully activate
β-gal; 7 T solution phantoms, assay buffer, 24 h, +β-gal 26.1 U/mL
  T1: 378 ms

## CNC(=O)CN(CCN(CCN(CC(=O)[O-])CC(=O)NC)CC(=O)[O-])CC(=O)[O-].[Gd+3] [Omniscan]
[3]
  link to nephrogenic systemic fibrosis (NSF): associated with the onset of NSF

## CNC[C@H](O)[C@@H](O)[C@H](O)[C@H](O)CO.CNC[C@H](O)[C@@H](O)[C@H](O)[C@H](O)CO.O=C([O-])CN(CCN(CC(=O)[O-])CC(=O)O)CCN(CC(=O)[O-])CC(=O)O.[Gd+3] [Magnevist, gadopentate dimeglumine]
[4]; equal to the extracellular space
  volume of distribution: ~0.266 L/kg
[4]; in vivo
  binding to human serum protein: has not been shown to bind
[4]; [5]
  distribution half-life: 12 min
  elimination half-life: 96 min
[4]; intravenous
  dose excreted in the urine by 24 hours: 91%
  dose excreted in the urine within 6 hours: ~83%
[3]
  link to nephrogenic systemic fibrosis (NSF): associated with the onset of NSF
[3]; intrathecal
  dose shown to enhance after intrathecal contrast delivery: 0.004 mmol/kg
[3]; intravenous delivery
  safe dose in preclinical safety studies: 50 × the normal dose

## CCOC(=O)CNc1cc(COC(=O)NCCN2CCN(CC(=O)[O-])CCN(CC(=O)[O-])CCN(CC(=O)[O-])CC2)ccc1O[C@@H]1O[C@H](CO)[C@H](O)[C@H](O)[C@H]1O.[Gd+3] [10a, Gadolinium(III)-1-(4-(2-(1-(4,7,10-triscarboxymethyl-(1,4,7,10tetraazacyclododecyl)))ethylcarbamoyloxymethyl)-2-((2-ethoxy-2-oxoethyl)amino)phenyl)-β-D-galactopyranose]
[1]; 10a-d
  relaxivity within the intramolecular series: highest relativity of the series
[1]; 37° C.
  Δr1 relative to the cleaved control product 11: negative
[2]
  change in T1 over time (stability): No significant change in T1

## CCOC(=O)CCCCCCCNc1cc(COC(=O)NCCN2CCN(CC(=O)[O-])CCN(CC(=O)[O-])CCN(CC(=O)[O-])CC2)ccc1O[C@@H]1O[C@H](CO)[C@H](O)[C@H](O)[C@H]1O.[Gd+3] [10d, Gadolinium(III)-1-(4-(2-(1-(4,7,10-triscarboxymethyl-(1,4,7,10tetraazacyclododecyl)))ethylcarbamoyloxymethyl)-2-((8-ethoxy-8-oxooctyl)amino)phenyl)-β-D-galactopyranose]
[1]; 37° C.
  Δr1 relative to the cleaved control product 11: negative
[2]
  change in T1 over time (stability): No significant change in T1
[2]; cell culture media, over 140 hours
  change in T1 over time (stability) in cell culture media: No significant change in T1
β-gal; 7 T solution phantoms
  T1 signal in the presence of β-gal compared with cleaved agent 11: approximately the same

## O=C([O-])CN1CCN(CCNC(=O)OCc2ccc([N+](=O)[O-])c(O[C@@H]3O[C@H](CO)[C@H](O)[C@H](O)[C@H]3O)c2)CCN(CC(=O)[O-])CCN(CC(=O)[O-])CC1.[Gd+3] [5b, Gadolinium(III)-1-(5-(2-(1-(4,7,10-triscarboxymethyl-(1,4,7,10tetraazacyclododecyl)))ethylcarbamoyloxymethyl)-2-nitrophenyl)-β-D-galactopyranose]
[1]; intermolecular series 5a-c, 37° C.
  Δr1 relative to the cleaved complex 11 (percent change in relaxivity, dark to bright): 26%
β-galactosidase; 420 nm
  Kcat: 679 +/− 135.8 S−1
β-galactosidase; nitro-phenol absorbance 420 nm
  Km: 791 µM
